Test results published in paper PMC7843452, “Novel Hybrids of Podophyllotoxin and Coumarin Inhibit the Growth and Migration of Human Oral Squamous Carcinoma Cells” (Frontiers in Chemistry, 2021).
Like-named read-outs stand apart in the source and are kept apart here.

Key:
[1] = test system: human oral squamous carcinoma SCC-9 cells; assay: CCK-8 antiproliferative assay, SCC-9; assay type: cell-based; conditions: read-out: IC50 (μM) SCC-9
Description: (§1) The in vitro antiproliferative activities of target compounds were investigated against human oral squamous carcinoma HSC-2, SCC-9, and A253 cells and human renal tubular epithelial HK-2 cells by Cell Counting Kit-8 (CCK-8) assay. The HSC-2, SCC-9, and A253 cell lines were purchased from Cobioer Biosciences (Nanjing, China), and HK-2 cell line was from KeyGen Biotech (Nanjing, China). The cells were placed into 96-well plates. After 24 h, cells were treated with 0.1% DMSO or different doses of test compounds for 72 h at 37°C in a CO2 incubator. Subsequently, 100 μl of CCK-8 test solution was added and incubated for 3 h at 37°C. The absorbance value of each well was measured at 450 nm.

[2] = test system: human oral squamous carcinoma HSC-2 cells; assay: CCK-8 antiproliferative assay, HSC-2; assay type: cell-based; conditions: read-out: IC50 (μM) HSC-2
Description: as §1

[3] = test system: human oral squamous carcinoma A253 cells; assay: CCK-8 antiproliferative assay, A253; assay type: cell-based; conditions: read-out: IC50 (μM) A253
Description: as §1

[4] = test system: human renal tubular epithelial HK-2 cells; assay: CCK-8 assay on normal cells, HK-2; assay type: cell-based; conditions: read-out: IC50 (μM) HK-2
Description: as §1

HSC-2 cells [5] = assay: Cell apoptosis analysis by flow cytometry (Annexin V/7-AAD); assay type: cell-based, human; conditions: HSC-2, 0.1, 0.25 and 0.5 μM, 48 h, dose-dependent
Description: HSC-2 cells were seeded into six-well plates, grown overnight at 37°C in a 5% CO2 incubator, and then treated with 0.1% DMSO or different concentrations of test compounds for 48 h. Cells were washed twice with ice-cold PBS and then suspended with 500 μl of binding buffer. Subsequently, 5 μl of Annexin V-APC and 5 μl of 7-AAD were added, and the cells were incubated at room temperature for 15 min in the dark. The samples were analyzed by flow cytometry.

HSC-2 cells [6] = assay: Cell cycle analysis by flow cytometry (PI); assay type: cell-based, human; conditions: 48 h
Description: HSC-2 cells were incubated in six-well plates and then treated with 0.1% DMSO or different concentrations of test compounds for 48 h. Subsequently, cells were fixed with 70% ethanol at 4°C overnight. After that, cells were washed with phosphate-buffered saline (PBS) and stained with 100 μl of RNase A at 37°C for 30 min and then 400 μl of propidium iodide (PI) at 4°C for 30 min. The cell cycle was measured by flow cytometry.

HSC-2 cells [7] = assay: Mitochondrial membrane potential assay (JC-1); assay type: cell-based, human; conditions: HSC-2, 0.1, 0.25 and 0.5 μM, 48 h, JC-1, dose-dependent
Description: HSC-2 cells were seeded on six-well plates and grown overnight at 37°C in a 5% CO2 incubator. Then, cells were incubated with 0.1% DMSO or different concentrations of compounds at 37°C for 48 h. Subsequently, cells were trypsinized, washed with PBS, and resuspended in incubation buffer containing JC-1 at 37°C for 20 min in a 5% CO2 incubator. The dyeing cells were rinsed, suspended in incubation PBS, and then analyzed d by flow cytometry.

p-mTOR = assay: Western blot, p-mTOR; assay type: cell-based, human; conditions: HSC-2, 0.1, 0.25 and 0.5 μM, 48 h
Description: (§2) After being cultured, HSC-2 cells were treated with 0.1% DMSO or different concentrations of compounds at 37°C for 48 h. Then, cells were collected, washed twice with PBS, and lysed with cold lysis buffer, followed by centrifugation. Then, the total proteins were collected, and protein concentration was quantified using Bradford assay. Equal amounts of proteins were electrophoresed by 10% sodium dodecyl sulfate–polyacrylamide gel electrophoresis (SDS-PAGE) and transferred onto nitrocellulose (NC) membrane. Membranes were blocked with 5% non-fat milk for 2 h, then washed, and incubated with primary antibodies overnight at 4°C. After being washed, the membranes were treated with secondary antibodies at room temperature for 2 h and then visualized using an ECL Western blotting kit.

cleaved caspase3 = assay: Western blot, cleaved caspase3; assay type: cell-based, human; conditions: HSC-2, 0.1, 0.25 and 0.5 μM, 48 h, concentration-dependent
Description: as §2

p-AKT = assay: Western blot, p-AKT; assay type: cell-based, human; conditions: HSC-2, 0.1, 0.25 and 0.5 μM, 48 h
Description: as §2

MMP-2 = assay: Western blot, MMP-2; assay type: cell-based, human; conditions: HSC-2, 0.1, 0.25 and 0.5 μM, 48 h
Description: as §2

HSC-2 cells [8] = assay: AO/EB double staining assay; assay type: cell-based, human; conditions: HSC-2, 0.1, 0.25 and 0.5 μM, 48 h
Description: HSC-2 cells were seeded on six-well plates and grown overnight at 37°C in a 5% CO2 incubator. Then, cells were incubated with 0.1% DMSO or different concentrations of compounds at 37°C for 48 h. Subsequently, cells were trypsinized, collected, washed with PBS, and stained with 100 μl of AO/EB dye at room temperature for 15 min in the dark. The dyeing cells were rinsed, suspended in incubation PBS, and then observed under a fluorescence microscope.

HSC-2 cells [9] = assay: Wound healing migration assay; assay type: cell-based, human; conditions: HSC-2, 0.1, 0.25 and 0.5 μM, 48 h, dose-dependent
Description: HSC-2 cells were seeded on six-well plates and grown to 80% at 37°C in a 5% CO2 incubator. Then, cells were scratched using the tip of the pipette, then washed with PBS to remove the non-adherent cells, and incubated with 0.1% DMSO or different concentrations of compounds at 37°C for 48 h. The images of cell migration were photographed with an inverted fluorescent microscope at 0 and 48 h.

[10] = test system: microtubule network in HSC-2 cells; assay: Immunofluorescence assay of microtubule network; assay type: cell-based, human; conditions: HSC-2, 0.1, 0.25 and 0.5 μM, 48 h, dose-dependent
Description: HSC-2 cells were seeded on 24-well plates, grown overnight at 37°C in a 5% CO2 incubator, and then incubated with 0.1% DMSO or different concentrations of compounds at 37°C for 48 h. Cells were washed with PBS, fixed with 4% paraformaldehyde, and then further permeabilized with 0.5% Triton X-100 for 10 min. Subsequently, cells were blocked for 20 min by 50–100 μl of goat serum albumin at room temperature and then treated with α-tubulin primary antibody at 4°C for 2 h. Then, cells were treated with the Alexa Fluor 488-labeled goat anti-rabbit fluorescence secondary antibody at 37°C for 1 h in the dark, and the cell nuclei were labeled by DAPI at room temperature for 5 min. Finally, cells were visualized under a confocal microscope.

cleaved PARP = assay: Western blot, cleaved PARP; assay type: cell-based, human; conditions: HSC-2, 0.1, 0.25 and 0.5 μM, 48 h, concentration-dependent
Description: as §2

Beclin1 = assay: Western blot, Beclin1; assay type: cell-based, human; conditions: HSC-2, 0.1, 0.25 and 0.5 μM, 48 h
Description: as §2

cyclin A2 = assay: Western blot, cyclin A2; assay type: cell-based, human; conditions: HSC-2, 0.1, 0.25 and 0.5 μM, 48 h
Description: as §2

LC3 = assay: Western blot, LC3; assay type: cell-based, human; conditions: HSC-2, 0.1, 0.25 and 0.5 μM, 48 h
Description: as §2

CDK2 = assay: Western blot, CDK2; assay type: cell-based, human; conditions: HSC-2, 0.1, 0.25 and 0.5 μM, 48 h
Description: as §2

p-AMPK = assay: Western blot, p-AMPK; assay type: cell-based, human; conditions: HSC-2, 0.1, 0.25 and 0.5 μM, 48 h, dose-dependent
Description: as §2

E-cadherin = assay: Western blot, E-cadherin; assay type: cell-based, human; conditions: HSC-2, 0.1, 0.25 and 0.5 μM, 48 h
Description: as §2

[11] = normal cells, CCK-8, 72 h, mean ± SD

O=c1[nH]cc(F)c(=O)[nH]1 [5-FU] showed an IC50 ([1]; CCK-8, 72 h, mean ± SD) of 5.35 ± 0.784 µM, an IC50 ([2]; CCK-8, 72 h, mean ± SD) of 7.12 ± 0.87 µM and an IC50 ([3]; CCK-8, 72 h, mean ± SD) of 5.52 ± 0.199 µM. For the same molecule, the IC50 [4, 11] was 8.77 ± 1.04 µM.

COc1cc([C@@H]2c3cc4c(cc3[C@H](OC(=O)COc3ccc5c(C)cc(=O)oc5c3)[C@H]3COC(=O)[C@H]23)OCO4)cc(OC)c1OC [12a] showed an IC50 ([1]; Homo sapiens, SCC-9, 72 h) of 0.279 ± 0.041 µM, an IC50 ([2]; Homo sapiens, HSC-2, 72 h) of 0.281 ± 0.024 µM and an IC50 ([3]; Homo sapiens, A253, 72 h) of 0.349 ± 0.063 µM. It also gave an IC50 ([4]; Homo sapiens, HK-2, 72 h) of 0.814 ± 0.173 µM.

For COc1cc([C@@H]2c3cc4c(cc3[C@H](OC(=O)COc3ccc5ccc(=O)oc5c3)[C@H]3COC(=O)[C@H]23)OCO4)cc(OC)c1OC [12b], the Induction of apoptosis (HSC-2 cells [5]) was “obviously induced apoptosis”, the “Effect on cell cycle” value (HSC-2 cells [6]; HSC-2, 0.1 μM) was “significant S accumulation” and the “Effect on cell cycle” value (HSC-2 cells [6]; HSC-2, 0.25 and 0.5 μM) was “cell cycle arrest at both S and G2 phases”. For the same molecule, the “Mitochondrial membrane potential (MMP)” value (HSC-2 cells [7]) was “significantly decreased”, the mTOR phosphorylation (p-mTOR) was “inhibition” and the “Relative level of cleaved caspase3” value (cleaved caspase3) was “upregulated”. For the same molecule, the “Phosphorylation of AKT” value (p-AKT) was “downregulated”, the IC50 ([1]; Homo sapiens, SCC-9, 72 h) was 0.231 ± 0.05 µM and the IC50 ([2]; Homo sapiens, HSC-2, 72 h) was 0.226 ± 0.021 µM. For the same molecule, the “Expression of MMP-2” value (MMP-2) was “reduced”, the “Morphological change, AO/EB staining” value (HSC-2 cells [8]) was “chromatin condensation and shrinkage” and the Cell migration (HSC-2 cells [9]) was “inhibited HSC-2 cell migration”. The “Effect on microtubule network organization” value [10] was “disruption of microtubule network organizations”, the “Relative level of cleaved PARP” value (cleaved PARP) was “upregulated” and the “Aggregation of Beclin1” value (Beclin1) was “increasing”. The “Relative level of cyclin A2” value (cyclin A2) was “suppressed in a concentration-dependent manner”, the IC50 ([3]; Homo sapiens, A253, 72 h) was 0.25 ± 0.019 µM and the “Aggregation of LC3” value (LC3) was “increasing”. The “Level of cleavage of LC3 (LC3-II)” value (LC3) was “upregulated”, the “Relative level of CDK2” value (CDK2) was “suppressed in a concentration-dependent manner” and the p-AMPK expression (p-AMPK) was “upregulated”. For the same molecule, the IC50 ([4]; Homo sapiens, HK-2, 72 h) was 0.626 ± 0.043 µM and the “Expression of E-cadherin” value (E-cadherin) was “obviously enhanced”.

In the case of N.N.[Cl][Pt][Cl] [Cisplatin, cisplatin], the IC50 ([1]; CCK-8, 72 h, mean ± SD) is reported as 2.35 ± 0.384 µM, the IC50 ([2]; CCK-8, 72 h, mean ± SD) is reported as 2.03 ± 0.308 µM and the IC50 ([3]; CCK-8, 72 h, mean ± SD) is reported as 1.62 ± 0.157 µM. The IC50 [4, 11] was 5.36 ± 0.33 µM.

With COc1cc([C@@H]2c3cc4c(cc3[C@@H](O[C@@H]3O[C@@H]5CO[C@@H](C)O[C@H]5[C@H](O)[C@H]3O)[C@H]3COC(=O)[C@H]23)OCO4)cc(OC)c1O [Etoposide, etoposide] the IC50 ([1]; Homo sapiens, SCC-9, CCK-8, 72 h, mean ± SD) was 1.15 ± 0.308 µM, the IC50 ([2]; Homo sapiens, HSC-2, CCK-8, 72 h, mean ± SD) was 1.25 ± 0.467 µM and the IC50 ([3]; Homo sapiens, A253, CCK-8, 72 h, mean ± SD) was 0.95 ± 0.387 µM. For the same molecule, the IC50 ([4]; Homo sapiens, HK-2, normal cells, CCK-8, 72 h, mean ± SD) was 3.04 ± 1.37 µM.
